In patent publication US9062048B2, “Cyclohexyl-azetidinyl antagonists of CCR2” (Janssen Pharmaceutica NV, priority 2010, dated 2015):

target: CCR2 (Homo sapiens (Human), UniProt P41597); assay: MCP-1 Receptor Binding Assay in THP-1 Cells; conditions: 0.5 nM 125I labeled MCP-1, 2 hours at 30° C., read-out: Inhibition of MCP-1 Binding IC50 MCP1B;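 further: THP-1 is a human monocytic cell line, and nonspecific binding was defined with 1 µM unlabeled MCP-1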
Sequence (P41597 whole entry): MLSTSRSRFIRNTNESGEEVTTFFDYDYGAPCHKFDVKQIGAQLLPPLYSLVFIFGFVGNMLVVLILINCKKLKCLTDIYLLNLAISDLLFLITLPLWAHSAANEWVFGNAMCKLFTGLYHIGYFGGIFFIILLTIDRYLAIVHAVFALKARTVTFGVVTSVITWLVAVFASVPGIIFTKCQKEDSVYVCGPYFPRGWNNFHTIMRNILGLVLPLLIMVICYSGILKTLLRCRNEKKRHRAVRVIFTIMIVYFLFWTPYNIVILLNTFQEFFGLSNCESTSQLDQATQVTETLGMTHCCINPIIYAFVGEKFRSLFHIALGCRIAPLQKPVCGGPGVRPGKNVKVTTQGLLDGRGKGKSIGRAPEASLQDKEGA

Row | Structure (SMILES) | IC50 [nM]
1 | CN1C(=O)CCC1[C@H]1CC[C@@H](N2CC(NC(=O)CNc3ncnc4ccc(C(F)(F)F)cc34)C2)CC1 (stereo partly drawn) [Example 39, N-(1-((1S,4s)-4-(1-methyl-5-oxopyrrolidin-2-yl)cyclohexyl)azetidin-3-yl)-2-((6-(trifluoromethyl)quinazolin-4-yl)amino)acetamide] | 231
2 | CC(=O)N[C@H]1CC[C@@H](N2CC(NC(=O)CNc3ncnc4ccc(C(F)(F)F)cc34)C2)CC1 [Example 41, N-(1-((1s,4s)-4-acetamidocyclohexyl)azetidin-3-yl)-2-((6-(trifluoromethyl)quinazolin-4-yl)amino)acetamide] | 670
3 | CN(C(=O)OCc1ccccc1)[C@H]1CC[C@@H](N2CC(NC(=O)CNc3ncnc4ccc(C(F)(F)F)cc34)C2)CC1 [Example 42] | 210
4 | CC(=O)N(C)[C@H]1CC[C@@H](N2CC(NC(=O)CNc3ncnc4ccc(C(F)(F)F)cc34)C2)CC1 [Example 44] | 520
5 | CCCC(=O)N(C)[C@H]1CC[C@@H](N2CC(NC(=O)CNc3ncnc4ccc(C(F)(F)F)cc34)C2)CC1 [Example 46, N-methyl-N-((1s,4s)-4-(3-(2-((6-(trifluoromethyl)quinazolin-4-yl)amino)acetamido)azetidin-1-yl)cyclohexyl)butyramide] | 810
6 | CCN(C(=O)OCc1ccccc1)[C@H]1CC[C@@H](N2CC(NC(=O)CNc3ncnc4ccc(C(F)(F)F)cc34)C2)CC1 [Example 47, Benzyl ethyl((1s,4s)-4-(3-(2-((6-(trifluoromethyl)quinazolin-4-yl)amino)acetamido)azetidin-1-yl)cyclohexyl)carbamate] | 160
7 | CCCN(C(=O)OCc1ccccc1)[C@H]1CC[C@@H](N2CC(NC(=O)CNc3ncnc4ccc(C(F)(F)F)cc34)C2)CC1 [Example 48, benzyl propyl((1s,4s)-4-(3-(2-((6-(trifluoromethyl)quinazolin-4-yl)amino)acetamido)azetidin-1-yl)cyclohexyl)carbamate] | 300
8 | CN([C@H]1CC[C@@H](N2CC(NC(=O)CNc3ncnc4ccc(C(F)(F)F)cc34)C2)CC1)S(C)(=O)=O [Example 49, N-(1-((1s,4s)-4-(N-methylmethylsulfonamido)cyclohexyl)azetidin-3-yl)-2-((6-(trifluoromethyl)quinazolin-4-yl)amino)acetamide] | 950
9 | CCN(C(C)=O)[C@H]1CC[C@@H](N2CC(NC(=O)CNc3ncnc4ccc(C(F)(F)F)cc34)C2)CC1 [Example 50] | 810
10 | CCCN(C=O)[C@H]1CC[C@@H](N2CC(NC(=O)CNc3ncnc4ccc(C(F)(F)F)cc34)C2)CC1 [Example 51, N-(1-((1s,4s)-4-(N-propylformamido)cyclohexyl)azetidin-3-yl)-2-((6-(trifluoromethyl)quinazolin-4-yl)amino)acetamide] | 37
11 | O=C(CNc1ncnc2ccc(C(F)(F)F)cc12)NC1CN([C@H]2CC[C@@H](N3CCCCO3)CC2)C1 [Example 52, N-(1-((1s,4s)-4-(1,2-oxazinan-2-yl)cyclohexyl)azetidin-3-yl)-2-((6-(trifluoromethyl)quinazolin-4-yl)amino)acetamide] | 64
12 | O=C(CNc1ncnc2ccc(C(F)(F)F)cc12)NC1CN([C@H]2CC[C@@H](N3CCCCC3=O)CC2)C1 [Example 56, N-(1-((1s,4s)-4-(2-oxopiperidin-1-yl)cyclohexyl)azetidin-3-yl)-2-((6-(trifluoromethyl)quinazolin-4-yl)amino)acetamide] | 550
13 | O=C(CNc1ccnc2ccc(C(F)(F)F)cc12)NC1CN([C@H]2CC[C@@H](n3ccccc3=O)CC2)C1 [Example 58, N-(1-((1s,4s)-4-(2-oxopyridin-1(2H)-yl)cyclohexyl)azetidin-3-yl)-2-((6-(trifluoromethyl)quinolin-4-yl)amino)acetamide] | 91
14 | O=C(CNc1cc(C(F)(F)F)nc2ccc(C(F)(F)F)cc12)NC1CN([C@H]2CC[C@@H](n3ccccc3=O)CC2)C1 [Example 59, 2-((2,6-bis(trifluoromethyl)quinolin-4-yl)amino)-N-(1-((1s,4s)-4-(2-oxopyridin-1(2H)-yl)cyclohexyl)azetidin-3-yl)acetamide] | 130
15 | N#Cc1cc(NCC(=O)NC2CN([C@H]3CC[C@@H](n4ccccc4=O)CC3)C2)c2cc(C(F)(F)F)ccc2n1 [Example 60, 2-((2-cyano-6-(trifluoromethyl)quinolin-4-yl)amino)-N-(1-((1s,4s)-4-(2-oxopyridin-1(2H)-yl)cyclohexyl)azetidin-3-yl)acetamide] | 40
16 | NC(=O)c1cc(NCC(=O)NC2CN([C@H]3CC[C@@](O)(c4cncs4)CC3)C2)c2cc(C(F)(F)F)ccc2n1 [Example 62] | 9

The next lines start with the values.

Row | IC50 [nM] | Structure (SMILES)
17 | 160 | O=C(CNc1ncnc2ccc(C(F)(F)F)cc12)NC1CN([C@H]2CC[C@@H](C3CCOCC3)CC2)C1 [Example 38, N-(1-((1s,4s)-4-(tetrahydro-2H-pyran-4-yl)cyclohexyl)azetidin-3-yl)-2-((6-(trifluoromethyl)quinazolin-4-yl)amino)acetamide]
18 | 78 | O=C(CNc1ncnc2ccc(C(F)(F)F)cc12)NC1CN(C2CCC(N3CCCC3=O)CC2)C1 (stereo not shown) [Example 40, N-(1-(4-(2-oxopyrrolidin-1-yl)cyclohexyl)azetidin-3-yl)-2-((6-(trifluoromethyl)quinazolin-4-yl)amino)acetamide]
19 | 510 | CC(C)C(=O)N(C)[C@H]1CC[C@@H](N2CC(NC(=O)CNc3ncnc4ccc(C(F)(F)F)cc34)C2)CC1 [Example 43]
20 | 390 | CCC(=O)N(C)[C@H]1CC[C@@H](N2CC(NC(=O)CNc3ncnc4ccc(C(F)(F)F)cc34)C2)CC1 [Example 45, N-Methyl-N-((1s,4s)-4-(3-(2-((6-(trifluoromethyl)quinazolin-4-yl)amino)acetamido)azetidin-1-yl)cyclohexyl)propionamide]
21 | 350 | O=C(CNc1ncnc2ccc(C(F)(F)F)cc12)NC1CN([C@H]2CC[C@@H](N3CCCO3)CC2)C1 [Example 53, N-(1-((1s,4s)-4-(isoxazolidin-2-yl)cyclohexyl)azetidin-3-yl)-2-((6-(trifluoromethyl)quinazolin-4-yl)amino)acetamide]
22 | 720 | O=C(CNc1ncnc2ccc(C(F)(F)F)cc12)NC1CN([C@H]2CC[C@@H](CN3CCCCC3=O)CC2)C1 [Example 54, N-(1-((1s,4s)-4-((2-oxopiperidin-1-yl)methyl)cyclohexyl)azetidin-3-yl)-2-((6-(trifluoromethyl)quinazolin-4-yl)amino)acetamide]
23 | 15 | O=C(CNc1ncnc2ccc(C(F)(F)F)cc12)NC1CN([C@H]2CC[C@@H](n3ccccc3=O)CC2)C1 [Example 55, N-(1-((1s,4s)-4-(2-oxopyridin-1-(2H)-yl)cyclohexyl)azetidin-3-yl)-2-((6-(trifluoromethyl)quinazolin-4-yl)amino)acetamide]
24 | 280 | O=C(CNc1ncnc2ccc(C(F)(F)F)cc12)NC1CN([C@H]2CC[C@@H](N3C(=O)CCC3=O)CC2)C1 [Example 57, N-(1-((1s,4s)-4-(2,5-dioxopyrrolidin-1-yl)cyclohexyl)azetidin-3-yl)-2-((6-(trifluoromethyl)quinazolin-4-yl)amino)acetamide]
25 | 830 | CN(CC(=O)NC1CN([C@H]2CC[C@@](O)(c3nccs3)CC2)C1)c1ncnc2ccc(C(F)(F)F)cc12 [Example 64, N-(1-((1r,4r)-4-hydroxy-4-(thiazol-2-yl)cyclohexyl)azetidin-3-yl)-2-(methyl(6-(trifluoromethyl)quinazolin-4-yl)amino)acetamide]
